Data as given in patent US7741359B2, “Hydrogen sulfide derivatives of non-steroidal anti-inflammatory drugs” (Antibe Therapeutics Inc., priority 2006, dated 2010).
“Also recorded” adds a separate entry of the source.

What was measured:
[1] = tested on: gastric prostaglandin E2 (PGE2) synthesis (COX-1 and/or COX-2); test: Gastric prostaglandin E2 (PGE2) synthesis in excised rat gastric tissue; format: in vivo; settings: oral; doses equimolar to diclofenac 20 mg/kg; tissue taken 3 h after administration; FIG. 2
Procedure: Briefly, the tissue samples were minced with scissors for 30 min, then placed in 1 mL of sodium phosphate buffer (pH 7.4) and placed in a shaking water bath (37° C.) for 20 min.

COX-1 = molecular target: T1, COX-1 (Rattus norvegicus, UniProt Q63921); test: Whole blood thromboxane B2 synthesis of treated rats (inhibition of COX-1); format: in vivo; settings: for COX-1 activity (whole blood thromboxane B2 synthesis): oral 60 μmol/kg, FIG. 4
T1 construct: whole blood thromboxane synthesis, which occurs via COX-1; from tissue; host or cells: rat whole blood (ex vivo clotting after oral dosing)
T1 sequence (Q63921 27-602): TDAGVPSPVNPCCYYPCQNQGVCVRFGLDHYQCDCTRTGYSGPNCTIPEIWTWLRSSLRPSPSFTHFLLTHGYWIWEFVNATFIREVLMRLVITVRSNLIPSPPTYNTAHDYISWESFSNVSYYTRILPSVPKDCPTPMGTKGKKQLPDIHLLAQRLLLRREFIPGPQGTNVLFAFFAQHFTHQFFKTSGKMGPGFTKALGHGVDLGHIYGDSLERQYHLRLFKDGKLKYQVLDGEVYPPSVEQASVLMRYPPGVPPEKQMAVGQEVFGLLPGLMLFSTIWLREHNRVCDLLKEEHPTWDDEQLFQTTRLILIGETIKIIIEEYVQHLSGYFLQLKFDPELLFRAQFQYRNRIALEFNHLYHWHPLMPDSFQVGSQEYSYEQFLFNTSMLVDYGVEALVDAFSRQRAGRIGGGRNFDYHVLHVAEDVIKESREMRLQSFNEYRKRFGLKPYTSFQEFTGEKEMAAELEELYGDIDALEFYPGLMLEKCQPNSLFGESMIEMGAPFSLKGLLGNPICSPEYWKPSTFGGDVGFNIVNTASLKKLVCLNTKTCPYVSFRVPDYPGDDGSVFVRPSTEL
Procedure: Inhibition of COX-1 was also measured using the same rats. […] The samples were then centrifuged for 3 min at 9,000 g and the supernatant was frozen at −80° C. for subsequent measurement of thromboxane B2 concentrations using a specific ELISA.
Inhibition of COX-1 was also measured using the same rats, using the same method as described for FIG. 4. […]

COX-2 = molecular target: T2, COX-2 (Rattus norvegicus, UniProt P35355); test: Rat airpouch assay, exudate PGE2 after zymosan (inhibition of COX-2 in vivo)
T2 construct: from tissue; host or cells: rat subcutaneous airpouch (in vivo, zymosan-induced inflammation)
T2 sequence (P35355 18-604): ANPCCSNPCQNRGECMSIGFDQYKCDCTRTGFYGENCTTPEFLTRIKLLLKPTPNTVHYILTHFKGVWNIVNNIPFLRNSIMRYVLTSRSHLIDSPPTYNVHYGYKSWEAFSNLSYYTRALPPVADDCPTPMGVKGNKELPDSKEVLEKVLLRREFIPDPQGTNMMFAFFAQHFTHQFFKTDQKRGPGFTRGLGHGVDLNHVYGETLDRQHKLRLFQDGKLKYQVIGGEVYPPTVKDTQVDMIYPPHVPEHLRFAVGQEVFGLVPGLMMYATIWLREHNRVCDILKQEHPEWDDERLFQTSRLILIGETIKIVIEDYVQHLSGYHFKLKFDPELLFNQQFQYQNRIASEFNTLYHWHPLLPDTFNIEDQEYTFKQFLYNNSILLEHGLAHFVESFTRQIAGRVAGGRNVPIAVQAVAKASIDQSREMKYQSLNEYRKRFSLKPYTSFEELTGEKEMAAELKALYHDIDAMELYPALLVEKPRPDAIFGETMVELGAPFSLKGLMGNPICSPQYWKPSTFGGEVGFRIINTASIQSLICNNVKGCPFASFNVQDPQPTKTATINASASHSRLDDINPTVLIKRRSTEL
Procedure: Briefly, a subcutaneous “pouch” is created by repeated injections of air over several days. Once established, inflammation in the pouch can be induced by injection of 1 mL of 1% zymosan. […] Another group of 5 rats was treated with the vehicle, but received an injection of 0.9% sterile saline into the pouch rather than zymosan. […]
Each group consisted of 5 rats.

[2] = Incidence of gastric damage at the end of the leukocyte adherence experiment; settings: for Percent Incidence of Gastric Damage: end of experiment
Procedure: Briefly, post-capillary mesenteric venules in anesthetized rats are examined under a light microscope. […] All test compounds were prepared in a vehicle of 1% carboxymethylcellulose. Changes in leukocyte adherence within the venule were recorded with a video camera attached to the microscope, and quantification of the numbers of adherent leukocytes was performed in a blind manner through evaluation of the videotaped images. Each group consisted of 5 male, Wistar rats weighing 150-175 g. A leukocyte was considered “adherent” if it remained stationary for 30 seconds or more (results below are expressed as the mean ± SEM). At the end of the experiment the stomach was opened and examined for the presence of gastric damage, under a dissecting microscope.

[3] = tested on: leukocyte adherence to the vascular endothelium; test: Leukocyte adherence to the vascular endothelium, intravital microscopy of mesenteric venules; settings: for Number of Adherent Leukocytes: mean ± SEM
Procedure: Briefly, post-capillary mesenteric venules in anesthetized rats are examined under a light microscope. […] All test compounds were prepared in a vehicle of 1% carboxymethylcellulose. Changes in leukocyte adherence within the venule were recorded with a video camera attached to the microscope, and quantification of the numbers of adherent leukocytes was performed in a blind manner through evaluation of the videotaped images. Each group consisted of 5 male, Wistar rats weighing 150-175 g. A leukocyte was considered “adherent” if it remained stationary for 30 seconds or more (results below are expressed as the mean ± SEM).

[4] = Gastric damage (gastric damage score) in rats after oral dosing; settings: for gastric damage: oral 60 μmol/kg, evaluated 3 hours later, FIG. 3
[5] = Carrageenan hindpaw edema model; format: in vivo, rat; settings: oral, dose equimolar to diclofenac at 3 mg/kg, 30 min prior to carrageenan, compared with diclofenac, FIGS. 9, 10
Procedure: Male, Wistar rats weighing 175-200 g were given the test compounds orally 30 min prior to subplantar injection of 100 ul of 1% lambda carrageenan. Paw volume measured using an Ugo Basile hydroplethysmometer prior to carrageenan injection and at 1-h intervals thereafter for 5 h.

[6] = Healing of acetic acid-induced gastric ulcers; format: in vivo, rat; settings: starting 3 days after ulcer induction, FIG. 13
Procedure: Gastric ulcers were induced via serosal application of acetic acid, as described by Elliott et al., A nitric oxide-releasing nonsteroidal anti-inflammatory drug accelerates gastric ulcer healing in rats. Gastroenterology 1995; 109: 524-530. […] After 4 days of such treatment, the rats were euthanized and the stomach was excised and photographed. The area (in mm^2) of the ulcer was determined planimetrically by an individual unaware of the treatments given to the rats. In a subgroup of 5 rats euthanized 3 days after induction of gastric ulcers (i.e., prior to initiation of drug treatment), the mean surface area of the ulcers was 24±2 mm^2.

[7] = 60 μmol/kg twice-daily orally for 4 days

## Oc1ccc(-c2cc(=S)ss2)cc1 [ADT-OH, 5-p-hydroxyphenyl-1,2-dithiole-3-thione, reference compound]
[1]
  gastric PGE2 synthesis: did not reduce gastric PGE2 synthesis when compared to vehicle
COX-1; hydrogen sulfide releasing moieties alone, dose not given, FIG. 8
  COX-1 activity (whole blood thromboxane synthesis): neither of the hydrogen sulfide releasing moieties (ADT-OH and TBZ) significantly affected COX-1 activity
COX-2; hydrogen sulfide releasing moieties alone, dose not given
  COX-2 activity (exudate PGE2): neither of the hydrogen sulfide releasing moieties (ADT-OH and TBZ) significantly affected COX-2 activity

## CC(=O)Oc1ccccc1C(=O)Oc1ccc(-c2cc(=S)ss2)cc1 [Compound I, 4-(5-thioxo-5H-1,2-dithiol-3-yl)phenyl 2-acetoxybenzoate]
[2]; intragastric 30 μmol/kg
  percent incidence of gastric damage compared to the parent NSAID alone: significantly reduced the percent incidence of gastric damage when compared to aspirin alone
  Percent Incidence of Gastric Damage: 20%
[3]; intragastric 30 μmol/kg
  number of adherent leukocytes compared to the parent NSAID alone: significantly reduced the number of adherent leukocytes per 100 μm vessel length when compared to aspirin alone
  Number of Adherent Leukocytes: 2.5 ± 0.3 per 100 μm vessel length

## O=C(Cc1ccccc1Nc1c(F)cccc1Cl)Oc1ccc(-c2cc(=S)ss2)cc1 [Compound III, [2-(2-chloro-6-fluorophenylamino)-phenyl]-acetic acid 4-(5-thioxo-5H-[1,2]dithiol-3-yl)-phenyl ester]
[2]; intragastric 30 μmol/kg
  percent incidence of gastric damage compared to the parent NSAID alone: still showed no incidences of gastric damage
  Percent Incidence of Gastric Damage: 0%
[3]; intragastric 30 μmol/kg
  number of adherent leukocytes compared to the parent NSAID alone: significantly reduced the number of adherent leukocytes per 100 μm vessel length when compared to lumiracoxib alone
  Number of Adherent Leukocytes: 1.7 ± 0.3 per 100 μm vessel length

## COc1ccc2cc(C(C)C(=O)Oc3ccc(-c4cc(=S)ss4)cc3)ccc2c1 (stereo not drawn) [Compound V, 2-(6-Methoxy-naphthale-2-yl)-propionic acid 4-(5-thioxo-5-H-[1,2]dithiol-3-yl)-phenyl ester]
COX-1
  COX-1 activity (whole blood thromboxane B2 synthesis): significantly (*p<0.05) inhibited COX-1 activity as compared to the vehicle-treated group; also recorded: somewhat less with Compound V than with naproxen or Compound XX
COX-2; 60 μmol/kg, FIG. 11
  COX-2 activity (exudate PGE2): significantly suppressed COX-2 activity as compared to the group treated with vehicle
[4]
  gastric damage: not detectable; also recorded: elicited significantly less damage than naproxen itself
[2]; intragastric 60 μmol/kg
  percent incidence of gastric damage compared to the parent NSAID alone: significantly reduced the percent incidence of gastric damage when compared to naproxen alone
  Percent Incidence of Gastric Damage: 0%
[3]; intragastric 60 μmol/kg
  number of adherent leukocytes compared to the parent NSAID alone: significantly reduced the number of adherent leukocytes per 100 μm vessel length
  Number of Adherent Leukocytes: 3.5 ± 0.7 per 100 μm vessel length

## CC(=O)Oc1ccccc1C(=O)Oc1ccc(C(N)=S)cc1 [Compound XVI, 2-Acetoxy-benzoic acid 4-thiocarbamoyl-phenyl ester]
[2]; intragastric 30 μmol/kg
  percent incidence of gastric damage compared to the parent NSAID alone: significantly reduced the percent incidence of gastric damage when compared to aspirin alone
  Percent Incidence of Gastric Damage: 0%
[3]; intragastric 30 μmol/kg
  number of adherent leukocytes compared to the parent NSAID alone: significantly reduced the number of adherent leukocytes per 100 μm vessel length when compared to aspirin alone
  Number of Adherent Leukocytes: 2.3 ± 0.3 per 100 μm vessel length

## NC(=S)c1ccc(OC(=O)Cc2ccccc2Nc2c(Cl)cccc2Cl)cc1 [Compound XVII, [2-(2,6-dichloro-phenylamino)-phenyl]-acetic acid 4-thiocarbamoyl-phenyl ester]
COX-1; rat, po, read-out: inhibition of whole blood thromboxane synthesis (COX-1)
  inhibition at 4.1 mg/kg: > 80%
[5]
  paw edema (paw volume increase): reduced paw edema to a greater extent
[5]; 3 mg/kg
  paw edema (paw volume increase): comparable to the effect of diclofenac at a dose of 10 mg/kg
[6]; 30 μmol/kg twice-daily orally for 4 days
  gastric ulcer healing (ulcer area): exhibited significantly greater healing
[4]; rats fasted 18 h, oral, doses equimolar to diclofenac 20 mg/kg, 3 h after administration, FIG. 1
  gastric damage score: no gastric damage was seen; also recorded: elicited significantly less gastric damage than diclofenac
[2]; intragastric 30 μmol/kg
  percent incidence of gastric damage compared to the parent NSAID alone: significantly reduced the percent incidence of gastric damage when compared to diclofenac alone
  Percent Incidence of Gastric Damage: 20%
[3]; intragastric 30 μmol/kg
  number of adherent leukocytes compared to the parent NSAID alone: significantly reduced the number of adherent leukocytes per 100 μm vessel length
  Number of Adherent Leukocytes: 2.8 ± 0.5 per 100 μm vessel length

## Cc1ccc(Nc2c(F)cccc2Cl)c(CC(=O)Oc2ccc(C(N)=S)cc2)c1 [Compound XVIII, 4-thiocarbamoylphenyl 2-(2-(2-chloro-6-fluorophenylamino)-5-methylphenyl)acetate]
[2]; intragastric 30 μmol/kg
  percent incidence of gastric damage compared to the parent NSAID alone: still showed no incidences of gastric damage
  Percent Incidence of Gastric Damage: 0%
[3]; intragastric 30 μmol/kg
  number of adherent leukocytes compared to the parent NSAID alone: significantly reduced the number of adherent leukocytes per 100 μm vessel length when compared to lumiracoxib alone
  Number of Adherent Leukocytes: 2.3 ± 0.4 per 100 μm vessel length

## COc1ccc2cc(C(C)C(=O)Oc3ccc(C(N)=S)cc3)ccc2c1 (stereo not drawn) [Compound XX, 2-(6-Methoxy-naphthalen-2-yl)-propionic acid 4-thiocarbamyl-phenyl ester]
COX-1
  COX-1 activity (whole blood thromboxane B2 synthesis): significantly (*p<0.05) inhibited COX-1 activity as compared to the vehicle-treated group; also recorded: significantly better at inhibiting thromboxane B2 synthesis than the ADT-OH equivalent, Compound V
[6]; [7]
  gastric ulcer healing (ulcer area): exhibited significantly greater healing
[4]
  gastric damage: not detectable; also recorded: elicited significantly less damage than naproxen itself

## COc1ccc2cc([C@H](C)C(=O)O)ccc2c1 [Naproxen, naproxen, reference compound]
COX-2; 60 μmol/kg, FIG. 11
  COX-2 activity (exudate PGE2): significantly suppressed COX-2 activity as compared to the group treated with vehicle
[6]; [7]
  gastric ulcer healing (ulcer area): exhibited similar degrees of healing
[2]; intragastric 60 μmol/kg
  Percent Incidence of Gastric Damage: 100%
[3]; intragastric 60 μmol/kg
  Number of Adherent Leukocytes: 10.2 ± 0.4 per 100 μm vessel length
